Experiments:
[1] = Peroxidation of unilamellar PC liposomes induced by Bu^tOOH/Cytochrome C, oxygen consumption (oxygraph); conditions: for inhibition of oxygen consumption: 5 μM nitroxide added 80 s after onset, 2.4 mM unilamellar PC liposomes, PBS pH 7.4, 37° C., 6 minutes
Protocol: Oxidation was induced by injecting at point A, 25 μl of Bu^tOOH 7.3 M and injecting at point B 25 μl of cytochrome C (1 mg protein/ml). Point C refers to the addition of 5 μM of the following compounds (if not specified otherwise):
The compounds are indicated with the following abbreviations: MC4, the compound with formula (I) in which R=C4 alkyl residue; DC4, the compound with formula (I) in which R=(X) and (X) contains R1=C4 methylenic alkyl residue; MC8, the compound with formula (I) in which R=C8 alkyl residue; DC8, the compound with formula (I) in which R=(X) and (X) contains R1=C8 methylenic alkyl residue; TEMPO and TDN. With reference to FIG. 2, the percentage inhibition of the consumption of oxygen in PC unilamellar liposome (2.4 mM) in 5 mM phosphate buffer saline, 0.1 mM EDTA, pH 7.4 at 37° C. to which 5 μM nitroxide compounds was added are reported.
The Applicant has selected certain nitroxide radicals as antioxidant agents following experimental tests. The antioxidant properties were studied in the laboratory in different biological systems. The systems employed are biological systems which mimic in vivo ones. The biological systems used are subjected to oxidative damage. Oxidative damage was induced in various ways. The Applicant carried out an experimental test to evaluate the peroxidation of unilamellar PC liposomes induced by the use of the Bu^tOOH/Cytochrome C system. […]
After 80 seconds from the onset of peroxidation, the different nitroxide radicals at final concentration of 5 μM were added. […] The reaction was monitored for 6 minutes. For each nitroxide tested, the extent of inhibition of the consumption of oxygen was calculated. The value of inhibition was calculated in the following way: […]
Each individual recording is reported in FIG. 1, since the rate of oxygen consumption before the addition of the antioxidant compounds at point C is always constant. From these experiments, the percentage inhibition of oxygen consumption was calculated by subtraction as reported above.

[2] = Peroxidation of multilamellar PC liposomes with incorporated nitroxides, induced by Bu^tOOH/Cytochrome C, oxygen consumption; conditions: 22 μM nitroxide incorporated inside 0.77 mM multilamellar liposomes; pH 7.4, 37° C., 5 minutes
Protocol: The compounds are indicated with the abbreviations: MC4, DC4, TEMPO and TDN as defined for FIG. 2. With reference to FIG. 4, the percentage inhibition of the consumption of oxygen was obtained from measurements carried out on an oxygraph. The system studied consists of multilamellar PC liposomes which have nitroxides incorporated inside them ([…]) in 5 mM phosphate buffer saline, 0.1 mM EDTA, pH 7.4 at 37° C.
The Applicant carried out an experimental test to evaluate the peroxidation of multilamellar PC liposomes, induced through the Bu^tOOH/Cytochrome C system.
The liposomes employed in this experimental system contain inside them the antioxidant agents. […] The peroxidation of these liposomes was evaluated by monitoring the consumption of oxygen in a final volume of 1.8 ml and at a constant temperature of 37° C. in 5 mM of phosphate buffer saline, 0.1 mM EDTA, pH 7.4 as previously described.
The final concentration of the liposomes and of antioxidant agents, in the oxidation chamber, was 0.77 mM and 22 μM respectively. […] The consumption of oxygen was monitored for 5 minutes. For each of the nitroxides tested, the degree of suppression of oxygen consumption was calculated. […]

Row | Compound | inhibition of oxygen consumption [1] | protective effects against lipid peroxidation ([1]; higher concentration than 5 μM, same experimental conditions) | inhibited peroxidation (percentage of inhibition of oxygen consumption) [2]
1 | CC1(C)CCCC(C)(C)N1[O] [TEMPO, 2,2,6,6-tetramethylpiperidine-1-oxyl] | no protective effects | no protective effects | no effect
2 | bis(2,2,6,6-tetramethylpiperidine-1-oxyl-4-yl)sebacate [TDN] | lower inhibition values with respect to DC4 |  | 45%
